Data on 21 compounds can be found in US5948635A, “Totally Synthetic Affinity Reagents” (University of North Carolina at Chapel Hill, priority 1995, dated 1999).

Experiment [1] can be described thus: Immobilized metal affinity chromatography of phage on Zn(II)-IDA. It is filed as binding. The note with it: for relative retention by Zn(II)-IDA: comparison of four clones. As to the method: The TSAR-9 random peptide library was subjected to IMAC chromatography as follows: 0.5 ml bed volume iminodiacetic acid (IDA) Sepharose (Sigma Chemical Co.) columns were washed with 1 ml of sterile doubly distilled (dd) H2 O, charged with 5 ml of 10 mM ZnCl2 in dd H2 O followed by 3 ml sterile dd H2 O and equilibrated with 10 ml 10 mM Tris-HCl, 150 mM NaCl, 0.1% Tween-20, pH 7.5 (T10NT) to prepare the Zn(II) IDA column. 10^12 pfu of the TSAR-9 random peptide library were passed over the Zn(II) IDA column and washed with 10 ml T10NT. Bound phage were eluted with 500 μl 200 mM glycine-HCl, pH 2.2 and the pH was then neutralized with 500 μl 1 M phosphate buffer, pH 7.5+1 ml T10NT. Eluted phage were subjected to two further rounds of selection and the resulting population was amplified by overnight growth on a lawn of E. coli DH5αF'.
To quantitate the relative binding of the Zn(II)-IDA selected TSARs, each TSAR encoding phage was chromatographed over Zn(II)-IDA. Three fractions were collected and titered for phage: wash (unbound), elution (bound, eluted), and column (bound, not eluted).
The binding specificity of a number of the identified Zn-binding proteins was evaluated by chromatography using IDA columns charged with Zn^+2, Cu^+2 or Ni^+2. A particular Zn-binding phage (10×10^11 pfu) in 1 ml of 100 mM Tris-HCl, 150 mM NaCl, 0.1% Tween-20, pH 7.5 (T100NT) was loaded onto a Zn(II)-, Cu(II)- or Ni(II)-IDA column and the columns were washed as described above, except that T100NT was substituted for T10NT. The columns were eluted with acid; Zn^+2 (2 ml 100 mM ZnCl2 in T1OONT, pH 7.5), or imidazole (2 ml 100 mM imidazole in T100NT, pH 7.5). Three fractions were collected and titered for the presence of phage: the wash fraction (.box-solid.), the elution fraction and the metal II-IDA column matrix resuspended in T10NT (.quadrature.).Results obtained are shown in FIG. 16 A and B.

A further experiment concerns the target T1, streptavidin (Streptomyces avidinii, UniProt P22629).
T1 construct: purchased Advanced Magnetics, Cambridge, Mass
As to the kind of experiment: Inhibition of TSAR binding to streptavidin by biotin and biotin analogs. The note with it: for IC50: representative TSARs SA-1, -2, -4 and -14. As to the method:
Specificity of the binding of the identified proteins for streptavidin was investigated by evaluating inhibition of binding by biotin and by a number of biotin analogs, including diaminobiotin, immunobiotin, lipoic acid and imidazalidone. Four representative TSARs, pictured in Table 9, were evaluated, i.e., SA-1,-2, -4 and -14 (SEQ ID NOs. 116, 114, 104 and 117).

Experiment [2] has as its system 7E11-C5 monoclonal antibody. Description: Competitive binding ELISA: inhibition of 7E11-C5 binding to LNCaP cell lysate antigen. Details: species or system mouse. The note with it: for inhibition of 7E11-C5 binding to its antigen by phage: phage 6.3×10^7 to 6.3×10^11 pfu, 7E11-C5 30 ng/ml. As to the method:
Each well of a polyvinylchloride 96-well ELISA plate (Cooke, Alexandria, Va.) was coated with an LNCAP human prostate carcinoma cell (ATCC # CRL 1740) lysate. Lysates were prepared by harvesting confluent LNCaP cell cultures, resuspending cells in 4 volumes of 1 mM MgCl2 for 5 minutes, mixing with 2 μg of DNase (Boehringer Mannheim, Indianapolis, Ind.) and homogenizing using 40 strokes in a Dounce homogenizer (Wheaton, Millville, N.J.). LNCaP lysate (50 μl per well of a 1:50 dilution in 0.1×PBS [Dulbecco's pH 7.2, JRH, Denver, Pa.]) was air dried overnight at 37° C. onto wells of the ELISA plate. ELISA plates were blocked with 150 μl/well of 1% BSA (Pentex Fraction V, Miles, Kankakee, Ill.) in PBS for 60 minutes at room temperature.
The blank control consisted of blocking solution in the absence of primary antibody. 7E11-C5 monoclonal antibody pre-incubated with buffer without any phage (MAb) was the positive control. The expression vector m663 phage was also employed as a non-specific phage control.
Plates were washed 4 times with 0.05% Tween-20 in PBS. Bound monoclonal antibody 7E11-C5 was detected by: (1) incubating with 50 μl/well of anti-mouse IgG1 -HRP (Fisher Biotech, Orangeburg, N.Y.) diluted to 0.4 ng/ml in 1% BSA-PBS, for 60 minutes at room temperature; (2) washing plates 6 times with 0.05% Tween-20 in PBS; and (3) adding 100 μl/well ABTS substrate [200 μl ABTS, (Boehringer Mannheim), 10 ml citrate buffer (pH 4), 10 μl H2 O2 ]. Optical density of the reactions products was determined by endpoint analysis on a Multiscan plate reader (Molecular Devices, Menlo Park, Calif.). The competitive inhibition (%) was determined by comparing the reactivity of the positive control to the test samples.
(§1) The TSAR-based peptide (SEQ ID NO 31) concentration ranged from 1.75 to 1130 nM. […] Two additional control peptides (amide form) having the following amino acid sequences: RGD-21: NH2 -[…]-CONH2 (SEQ ID NO 32) and CYT-379: NH2 -[…]-CONH2 (SEQ ID NO 33) were also evaluated. Herein these control peptides are referred to as Control Peptide 1 and Control Peptide 2. […] The B139 monoclonal antibody, which is a murine IgG1 monoclonal antibody that reacts with all human epithelial cells, recognizes a different antigen in the LNCaP extract from that recognized by the 7E11-C5 antibody. The control B139 monoclonal antibody was used at a concentration of 9 ng/ml. The results obtained are illustrated in FIG. 13.

Another experiment has as its system 7E11-C5 antibody. Description: Relative affinity: phage binding to microtiter plates coated with differing amounts of 7E11-C5. On the set-up: species or system mouse. The note with it: plates coated with 0, 4, 20, 100 and 500 ng antibody. As to the method:
The relative affinity of the different 7E11-C5 binding TSARs for the 7E11-C5 antibody was compared. Microtiter plates were coated with differing amounts of the antibody (i.e., 0, 4, 20, 100 and 500 ng) prior to phage binding. Our prediction was that the TSAR with the highest affinity for the antibody would still bind effectively to wells coated with lower amounts of antibody. […] These TSARs all have Y as the second amino acid in the motif. The next class of TSARs bound ~2-fold less well; as represented by 12-2, which also had Y as the second amino acid. Three TSARs bound 5-10 fold less well than the best binders as represented by 9-2, 9-4, and 12-4; their inserts had W or H at the second position of the motif. Finally, TSAR 12-3 bound 50-fold less well than the best binders; this TSAR has I and R in the second and sixth positions, respectively. Thus, it seems that the 7E11-C5 epitope can be mimicked by a linear peptide sequence that has both variant and invariant residues.

The test system of experiment [3] is 7E11-C5 monoclonal antibody. As to the kind of experiment: ELISA of antibody binding to immobilized peptide. On the set-up: species or system mouse. The note with it: peptide adsorbed on polyvinylchloride plates, 0.5-500 μg/ml; FIG. 14, 15. The protocol: (§2) Peptides, diluted in 10% PBS (Dulbecco's, pH 7.2, Hazelton), were immobilized by adsorption on polyvinylchloride plates. SEQ ID NO 31 (amide form) was diluted in 10% PBS at 0.5, 5, 50 or 500 μg/ml. Control peptide 2 in 10% PBS at the same range of concentrations served as the control. A 50 μl volume of the test or control peptide solution was added to each well and incubated overnight at 4° C. The peptide solution was removed and 10% BSA-PBS was added as blocking solution. […] Bound 7E11-C5 monoclonal antibody was detected with anti-mouse IgG1 -HRP as described above herein.

Experiment [4] concerns B139 monoclonal antibody. Description: ELISA of control antibody binding to immobilized peptide. On the set-up: species or system murine. The note with it: peptide coated at 5 μg/ml; FIG. 15. The protocol: as §2
For experiment [5], the system named is B139 monoclonal antibody. As to the kind of experiment: Competitive binding ELISA: inhibition of B139 binding to LNCaP extract. On the set-up: species or system murine. The note with it: B139 9 ng/ml; FIG. 13. The protocol:
as §1

A further experiment concerns C46 monoclonal antibody. Description: Competition of CEA with phage for binding to immobilized C46 antibody. On the set-up: species or system mouse. The note with it: CEA 1, 25, 250, 2500 ng; FIG. 17. The protocol: Microtiter dish wells were coated with 50 μl of the C46 monoclonal antibody (5 μg/ml in 100 mM NaHCO3, pH 8.5) for 2 hr at 4° C. To the wells, 50 μl of BSA (1 mg/ml in 100 mM NaHCO3, pH 8.5) were added and the wells incubated for 30 min. at room temperature. The wells were washed (5×) with PBS-0.05% Tween 20.
To each well was added either 25 μl of C46-binding phage (C46.9-1 or C46.9-2) and increasing amounts of highly purified CEA (1, 25, 250, 2500 ng) (Scripps Clinic). After 2 hr incubation at room temperature, the wells were washed (10×) with PBS-0.05% Tween 20. 25 μl of 200 mM glycine-HCl (pH 2.2) were then added to the wells and they were incubated at room temperature for 5 min. The liquid was then transferred to new microtiter dish wells that contained 50 μl of 1M NaHPO4. The contents of the well were then serially diluted and aliquots were plated to count plaques.

No end group written: not given here.

T1 sequence (P22629 25-183): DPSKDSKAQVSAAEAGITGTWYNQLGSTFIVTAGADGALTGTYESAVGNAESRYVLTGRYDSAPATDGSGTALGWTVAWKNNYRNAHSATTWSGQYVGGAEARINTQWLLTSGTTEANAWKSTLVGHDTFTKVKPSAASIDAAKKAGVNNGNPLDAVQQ

As to “ATEQHYWTQYHKPYHPSVPGFHVKSVTETTDHWESRNG [Zn1B8]”, in experiment [1], the “relative retention by Zn(II)-IDA” value is on record as “exhibit the least retention” and the “retention on Zn(II)-IDA, of recovered phage” value is listed as 85%. For the compound “PDYDLMSSTCRFYGCSKMPGGVAVNGLFAVQGHSKYSS [SA-1]”, the “inhibition of TSAR binding to streptavidin by biotin and all the biotin analogs tested” value on streptavidin was “completely inhibited”. Regarding “IDMPETAST MYNMLH RNEPGGRKLSPPANDMPPALLKR [7E11.9-5]”, in experiment [2], the “inhibition of 7E11-C5 binding to its antigen by phage” value (“inhibition … by phage” below) is “inhibited the binding of 7E11-C5 monoclonal antibody to its antigen, in a dose dependent fashion”. Further, in the experiment on 7E11-C5 antibody, the “relative binding to 7E11-C5 (fold less well than the best binders)” value was “bound the best”. As to “TVAT MHDTLH SAPGSGNLPGSYDIKPIFKASGALHSTX^2 [7E11.9-4]”, the “relative binding to 7E11-C5 (fold less well than the best binders)” value in the experiment with 7E11-C5 antibody is on record as 5-10 fold. Turning to “PSYYRGDAGPSYYRGDAG-NH2 [Control Peptide 1]”, in experiment [3], the “binding of 7E11-C5 to immobilized peptide” value is given as “did not bind to either of the tested antibodies”. The “binding of B139 to immobilized peptide” value with B139 monoclonal antibody [4] is “did not bind to either of the tested antibodies”. Besides, the “competitive inhibition of B139 binding to LNCaP extract by peptide” value with B139 monoclonal antibody [5] was “neither SEQ ID NO 31 (amide form) nor either of Control Peptide 1 and Control Peptide 2 competitively inhibited the binding”. For the same compound, the “competitive inhibition of 7E11-C5 binding to LNCaP extract by peptide” value in experiment [2] (peptides, amide form, FIG. 13) is listed as “did not effectively compete”. On to QKGGPGLLLYGGDS MWITLH EPG [7E11.12-4], for which, in the experiment on 7E11-C5 antibody, the “relative binding to 7E11-C5 (fold less well than the best binders)” value was 5-10 fold. Regarding `O=C(O)CCCC[C@@H]1CCSS1` (racemic) [lipoic acid], the IC50 on streptavidin was ~1050 µM. With PVQKEYGFFMSGAS MIRLLR ETP [7E11.12-3], the “relative binding to 7E11-C5 (fold less well than the best binders)” value in the experiment on 7E11-C5 antibody is 50 fold. With “CNFRGQCVSAPQTSNSKSPGWDTTWHDFRKEQFYNLTS [C46-9.2]”, the “competition with CEA for binding to the C46 antibody” value in the experiment on C46 monoclonal antibody is listed as “competitive binding”.

For RDSAVENPSVGGEIP MYRYLH QR [7E11.12-2], the “relative binding to 7E11-C5 (fold less well than the best binders)” value in the experiment with 7E11-C5 antibody is given as ~ 2 fold. On the same count and under the same terms, then “SVQFKSISSRSMDDVVKDPGPKPA MWKMLH SKNPFTLS [7E11.9-2]”, with 5-10 fold. RLGNVWRVEGGG MYQQLH HNFPX^2 [7E11.12-1]: the “inhibition … by phage” value in experiment [2] is recorded as “inhibited the binding of 7E11-C5 monoclonal antibody to its antigen, in a dose dependent fashion”. Further, the “relative binding to 7E11-C5 (fold less well than the best binders)” value in the experiment on 7E11-C5 antibody is on record as “bound the best”. With `N[C@@H]1[C@H](CCCCC(=O)O)SC[C@@H]1N` [diaminobiotin], the half-maximal inhibitory concentration (IC50) at streptavidin was ~0.2 µM. For the compound imidazalidone, the IC50 on streptavidin is ~5000 µM. In the case of “HSYHDVATTKPGSHCMHNPGHPPPPNCHMAKAHSHNRI [Zn1A12]”, the “relative retention by Zn(II)-IDA” value in experiment [1] is “exhibit the least retention”.

For “SSCAYARYVPLLLLLYANPG MYSRLH SPAVRPLTQSSA [7E11.9-1]”, the “inhibition … by phage” value in experiment [2] is “also inhibited 7E11-C5 monoclonal antibody binding”. Also, the “relative binding to 7E11-C5 (fold less well than the best binders)” value in the experiment with 7E11-C5 antibody is “bound the best”. For the compound “YDHHSYNGDMHYPGWPPLPGPHHFAPIDVTTHSHTQPD [Zn1A1]”, in experiment [1], the “retention on Zn(II)-IDA, of recovered phage” value stood at 15%. As to `N=C1N[C@H]2[C@H](CS[C@H]2CCCCC(=O)O)N1` [immunobiotin], the half-inhibitory concentration (IC50) on streptavidin was ~3 µM. For the compound “NAVRVDSGYPPNPNTFHLPGCIDVLSSGCRLFSAHSEY [C46-9.1]”, the “competition with CEA for binding to the C46 antibody” value in the experiment with C46 monoclonal antibody was “competitive binding”. With “FDHTYSGPVCVKNGGLVSPGVLS MYNRLH SDGGPSLAS [7E11.9-3]”, in the experiment on 7E11-C5 antibody, the “relative binding to 7E11-C5 (fold less well than the best binders)” value was “bound the best”. In the case of “IAHRVVAYNSLDSNPIWLPGEESSSVFGDY HPMF RAPV [SA-4]”, the “inhibition of TSAR binding to streptavidin by biotin and all the biotin analogs tested” value at streptavidin is “completely inhibited”.
